The values below come from US10905738B2, “Synthetic peptides, prodrugs, pharmaceutical compositions and uses” (Biozeus Desenvolvimento De Produtos Biofarmacêuticos, priority 2018, dated 2021).

The test system of assay [1] is smooth muscle of tracheal rings. Kind of assay: spasmodic contraction of tracheal rings ex vivo (histamine-induced). More on the design: species or system Dunkin-Hartley guinea pigs. The note with it: for relaxing effect on airway (tracheal ring) smooth muscle, in words: histamine-induced contraction ex vivo; for Effectiveness (Emax) (%): relaxation of tracheal rings contracted by histamine (50 μM); for Effectiveness (Emax) (%) / Potency (pEC50) Molar: mean±SEM; for Potency (pEC50) Molar: tracheal rings contracted by histamine (50 μM), peptides 0.01 to 10 μM. The method, then: The magnitude of the relaxing effect of the peptides was evaluated by means of a model of spasmodic contraction of tracheal rings ex vivo, largely employed to test new bronchodilating agents (see CULLUM, V. A., FARMER, J. B., JACK, D., LEVY, G. P. Salbutamol: a new, selective β-adrenoceptive receptor stimulant. British journal of pharmacology, 35(1): 141-151. 1969; KAO, C. H., CHU, Y. H., WANG, H. W. Effects of lidocaine on rat's isolated tracheal smooth muscle. European Archives of Oto-Rhino-Laryngology, 267(5): 817-820. 2010; SORIANO-URSÚA, M. A., VALENCIA-HERNÁNDEZ, I., ARELLANO-MENDOZA, M. G., CORREA-BASURTO, J., TRUJILLO-FERRARA, J. G. Synthesis, pharmacological and in silico evaluation of 1-(4-dihydroxy-3, 5-dioxa-4-borabycyclo [4.4.0] deca-7,9,11-trien-9-yl)-2-(tert-butylamine) ethanol, a compound designed to act as a β2 adrenoceptor agonist. European journal of medicinal chemistry, 44(7): 2840-2846. 2009).
For each test, Dunkin-Hartley guinea pigs (400-500 g) were euthanized in a CO2 atmosphere; subsequently, the trachea was exposed, removed and sectioned in segments of 1 to 3 cartilaginous tracheal rings. Each segment was transferred to an individual organ bath system containing Krebs nutritive solution (NaCl 118 mM; KCl […]; CaCl2) 2.5 mM; MgSO4 1.2 mM; KH2PO4 1.2 mM; NaHCO324 mM; glucose 11 mM) at 37° C., under constant aeration with a carbogenic mixture (95% of O2 and 5% of CO2). In each system, a stem fixed to the base of the container and another connected to an isometric transducer (GRASS FT-03) made up the support of the fragments. A data digitizing system connected to the isometric transducer allowed the recording of tension variations produced by the contraction of the tracheal rings (PowerLab™ 16/30, LabChart, version 8.1, AD Instruments, Australia). The basal tension was adjusted to 1 g, and subsequently, the contractility of the fragments was evaluated by a stimulus with carbachol (2.5 μM). After 1 h at rest, the basal tension was recovered and the tissues were subjected to contraction induced by histamine (50 μM) followed by exposure to increasing concentrations of the treatments (0.01 to 10 μM; n=8) or the comparator PnTx(19).
Table 1 lists the mean±SEM of the potency values, shown as the negative logarithm of the concentration that reduced the voltage to 50% of the maximum Histamine-induced contraction (pEC50), and efficacy (Emax), calculated from at least 8 independent tests using the sigmoid nonlinear regression equation of the software Graph Prism 5.0 (GraphPad Software, La Jolla, Ca, USA).

Assay [2] deals with smooth muscle of pulmonary arteries. Kind of assay: relaxation of pulmonary arteries contracted with phenylephrine ex vivo. The note with it: n = 9; for pEC50: pulmonary arteries contracted with phenylephrine, peptides 1 nM-10 μM, mean±SEM; for Effectiveness (Emax) (%): relaxation percentage related to maximum phenylephrine contraction. More on the design: species or system male Wistar rats. From the text: The ex vivo model of pulmonary artery smooth muscle contraction with phenylephrine is very useful to screen candidate compounds for lung diseases that demand vasodilating effects (ALENCAR, A. K., PEREIRA, S. L., MONTAGNOLI, T. L., MAIA, R. C., KUMMERLE, A. E., LANDGRAF, S. S., CARUSO-NEVES, C., FERRAZ, E. B., TESCH, R., NASCIMENTO, J. H., DE SANT'ANNA, C. M., FRAGA, C. A., BARREIRO, E. J., SUDO, R. T., ZAPATA-SUDO, G. Beneficial effects of a novel agonist of the adenosine A2A receptor on monocrotaline-induced pulmonary hypertension in rats. Br J Pharmacol, 169: 953-62. 2013).
Rats were anesthetized with midazolam and ketamine (2 mg/kg and 100 mg/kg, respectively) via intraperitoneal administration. After infusion of a lethal dose of sodium thiopental via intraperitoneal administration (50 mg/kg), the trunk of the pulmonary artery was carefully removed via sternotomy. The pulmonary artery was carefully dissected and the connective tissue removed. The arteries were connected to a force transductor, positioned in vertical chambers filled with Krebs solution, oxygenated and kept at 37° C.
After a stabilization period of 2 hours at a tension of 1.5 grams, the arteries were exposed to increasing doses of phenylephrine (1 nM-10 μM) in order to obtain maximum smooth muscle contraction and then exposed to increasing doses of selected peptides in the concentrations of 1 nM-10 μM each (n=9). The tension generated by the pulmonary artery was evaluated at intervals of 5 minutes for each dose (ALENCAR, A. K., PEREIRA, S. L., MONTAGNOLI, T. L., MAIA, R. C., KUMMERLE, A. E., LANDGRAF, S. S., CARUSO-NEVES, C., FERRAZ, E. B., TESCH, R., NASCIMENTO, J. H., DE SANT'ANNA, C. M., FRAGA, C. A., BARREIRO, E. J., SUDO, R. T., ZAPATA-SUDO, G. Beneficial effects of a novel agonist of the adenosine A2A receptor on monocrotaline-induced pulmonary hypertension in rats. Br J Pharmacol 169: 953-62. 2013; ALENCAR, A. K., PEREIRA, S. L., DA SILVA, F. E., MENDES, L. V., CUNHA VDO, M., LIMA, L. M., MONTAGNOLI, T. L., CARUSO-NEVES, C., FERRAZ, E. B., TESCH, R., NASCIMENTO, J. H., SANT'ANNA, C. M., FRAGA, C. A., BARREIRO, E. J., SUDO, R. T., ZAPATA-SUDO, G. N-acylhydrazone derivative ameliorates monocrotaline-induced pulmonary hypertension through the modulation of adenosine AA2R activity. International Journal of Cardiology, 173(2): 154-62. 2014).
Potency values are shown as the negative logarithm of the concentration that reduced the voltage to 50% of the maximum phenylephrine-induced contraction (pEC50), and they are expressed as mean±SEM. The maximum contraction achieved in a given artery was considered to be 100% of contraction, and the effectiveness (Emax) was expressed as the relaxation percentage related to this maximum value. The results were calculated from at least 3 independent tests using the sigmoid non-linear regression equation, and the statistical analysis of the concentration curve was done by performing a nonlinear fit of the logarithmic of the agonist versus response. All the above calculations were performed on the software Graph Prism 5.0 (GraphPad Software, La Jolla, Calif., USA). Tension analysis was performed on the software LabChart7 (AD Instruments, Sydney, Australia). As a cutoff to determine biological significance, we considered pulmonary artery relaxation values above 30% as biologically relevant, considered those as active and then calculated the Emax values (SUN, C. K., LIN, Y. C., YUEN, C. M., CHUA, S., CHANG, L. T., SHEU, J. J., LEE, F. Y., FU, M., LEU, S., YIP, H. K. Enhanced protection against pulmonary hypertension with sildenafil and endothelial progenitor cell in rats. International journal of cardiology, 162(1): 45-58. 2012; ALENCAR, A. K., PEREIRA, S. L., DA SILVA, F. E., MENDES, L. V., CUNHA VDO, M., LIMA, L. M., MONTAGNOLI, T. L., CARUSO-NEVES, C., FERRAZ, E. B., TESCH, R., NASCIMENTO, J. H., SANT'ANNA, C. M., FRAGA, C. […]

With “AQYFWIAWYKLANSK [SEQ ID NO: 4, Ac-Ala-Gln-Tyr-Phe-Trp-Ile-Ala-Trp-Tyr-Lys-Leu-Ala-Asn-Ser-Lys-NH2]”, in assay [1], the “relaxing effect on airway (tracheal ring) smooth muscle, in words” value (shortened to “relaxing effect on airway”) was “effective”; the “Effectiveness (Emax) (%)” value came out at 38.8 ± 3.5%; the “Potency (pEC50) Molar” value stood at 6.8 ± 0.3 Molar.
Consider “IAWYKGGGGGIAWYK [SEQ ID NO: 28, Ac-Ile-Ala-Trp-Tyr-Lys-Gly-Gly-Gly-Gly-Gly-Ile-Ala-Trp-Tyr-Lys-NH2]”, for which, in assay [1], the “Effectiveness (Emax) (%)” value is “Inactive” and the “Potency (pEC50) Molar” value was “Inactive”.
As for “IAWYKGGGGGIAWYKGGGGGIAWYK [SEQ ID NO: 30]”, in assay [1], the “Effectiveness (Emax) (%)” value was “Inactive” and the “Potency (pEC50) Molar” value is on record as “Inactive”.
On to “IAWYKRGGGGGRKYWAI [SEQ ID NO: 29, Ac-Ile-Ala-Trp-Tyr-Lys-Arg-Gly-Gly-Gly-Gly-Gly-Arg-Lys-Tyr-Trp-Ala-Ile-NH2]”, for which, in assay [1], the “Effectiveness (Emax) (%)” value is “Inactive” and the “Potency (pEC50) Molar” value was “Inactive”.
In the case of “QYFWIAWYKLANS [SEQ ID NO: 17, Ac-Gln-Tyr-Phe-Trp-Ile-Ala-Trp-Tyr-Lys-Leu-Ala-Asn-Ser-NH2]”, in assay [2], the pEC50 was found to be 7.8 ± 3.0 and the “Effectiveness (Emax) (%)” value was 15% ± 2.6. Further, in assay [1], the “Effectiveness (Emax) (%)” value is recorded as 37.1 ± 2.6% and the “Potency (pEC50) Molar” value came to 6.8 ± 0.3 Molar.
Take “RAYFWIAWYKLANSK [SEQ ID NO: 1, Ac-Arg-Ala-Tyr-Phe-Trp-Ile-Ala-Trp-Tyr-Lys-Leu-Ala-Asn-Ser-Lys-NH2]”: in assay [1], the “relaxing effect on airway” value was “effective”; the “Effectiveness (Emax) (%)” value stood at 45.7 ± 4.3%; the “Potency (pEC50) Molar” value is 7.1 ± 0.4 Molar.
For “RQAFWIAWYKLANSK [SEQ ID NO: 3, Ac-Arg-Gln-Ala-Phe-Trp-Ile-Ala-Trp-Tyr-Lys-Leu-Ala-Asn-Ser-Lys-NH2]”, in assay [1], the “relaxing effect on airway” value is given as “effective”; the “Effectiveness (Emax) (%)” value is given as 36.7 ± 1.9%; the “Potency (pEC50) Molar” value came out at 6.8 ± 0.2 Molar.
For “RQYFWIAW [SEQ ID NO: 22, Ac-Arg-Gln-Tyr-Phe-Trp-Ile-Ala-Trp-NH2]”, in assay [2], the pEC50 was 5.8 ± 3.1 and the “Effectiveness (Emax) (%)” value is given as 8% ± 2.83. Moreover, in assay [1], the “Effectiveness (Emax) (%)” value was 35.2 ± 1.8% and the “Potency (pEC50) Molar” value is 7.0 ± 0.2 Molar.
Turning to “RQYFWIAWY [SEQ ID NO: 20, Ac-Arg-Gln-Tyr-Phe-Trp-Ile-Ala-Trp-Tyr-NH2]”, in assay [2], the pEC50 stood at 6.1 ± 6.9 and the “Effectiveness (Emax) (%)” value is 6% ± 7.64. In assay [1], the “Effectiveness (Emax) (%)” value was found to be 37.8 ± 2.9% and the “Potency (pEC50) Molar” value is 7.1 ± 0.3 Molar.
For the substance “RQYFWIAWYKIASNK [SEQ ID NO: 6, Ac-Arg-Gln-Tyr-Phe-Trp-Ile-Ala-Trp-Tyr-Lys-Ile-Ala-Ser-Asn-Lys-NH2]”, in assay [1], the “Effectiveness (Emax) (%)” value stood at 25.3 ± 1.7% and the “Potency (pEC50) Molar” value turned out to be 7.0 ± 0.3 Molar.
For “RQYFWIAWYKLANSA [SEQ ID NO: 2, Ac-Arg-Gln-Tyr-Phe-Trp-Ile-Ala-Trp-Tyr-Lys-Leu-Ala-Asn-Ser-Ala-NH2]”, in assay [1], the “relaxing effect on airway” value was “effective”; the “Effectiveness (Emax) (%)” value came to 40.4 ± 2.6%; the “Potency (pEC50) Molar” value amounted to 6.9 ± 0.2 Molar.
With “WIAWYKL [SEQ ID NO: 23, Ac-Trp-Ile-Ala-Trp-Tyr-Lys-Leu-NH2]”, in assay [2], the pEC50 amounted to 6.1 ± 6.2 and the “Effectiveness (Emax) (%)” value was 4% ± 6.07. Also, in assay [1], the “Effectiveness (Emax) (%)” value came out at 35.5 ± 2.3% and the “Potency (pEC50) Molar” value is on record as 7.5 ± 0.3 Molar.
The matching figures for “YFWIAWYKLAN [SEQ ID NO: 18, Ac-Tyr-Phe-Trp-Ile-Ala-Trp-Tyr-Lys-Leu-Ala-Asn-NH2]”: 6.5 ± 9.3, 18% ± 9.12, 38.0 ± 2.3% and 7.2 ± 0.3 Molar.

As usually defined, the pEC50 is the negative decadic logarithm of the EC50, by convention in mol/L. Low values mean a high EC50, high ones a low EC50.
